Read-outs that look alike come from different tables or passages of the source.
How the values were obtained:
[1] = biological target: T1, reduced folate carrier (RFC/SLC19A1) (Homo sapiens, UniProt P41440); assay: Inhibition of RFC-mediated [3H]-l-LV influx in CEM-7A cells; format: cell-based
T1 construct: CEM-7A cells, which display 30-fold RFC overexpression relative to wild-type CCRF-CEM cells; endogenous in cells; host or cells: CEM-7A (CCRF-CEM variant, RFC+++ 30-fold)
T1 sequence (P41440 1-591): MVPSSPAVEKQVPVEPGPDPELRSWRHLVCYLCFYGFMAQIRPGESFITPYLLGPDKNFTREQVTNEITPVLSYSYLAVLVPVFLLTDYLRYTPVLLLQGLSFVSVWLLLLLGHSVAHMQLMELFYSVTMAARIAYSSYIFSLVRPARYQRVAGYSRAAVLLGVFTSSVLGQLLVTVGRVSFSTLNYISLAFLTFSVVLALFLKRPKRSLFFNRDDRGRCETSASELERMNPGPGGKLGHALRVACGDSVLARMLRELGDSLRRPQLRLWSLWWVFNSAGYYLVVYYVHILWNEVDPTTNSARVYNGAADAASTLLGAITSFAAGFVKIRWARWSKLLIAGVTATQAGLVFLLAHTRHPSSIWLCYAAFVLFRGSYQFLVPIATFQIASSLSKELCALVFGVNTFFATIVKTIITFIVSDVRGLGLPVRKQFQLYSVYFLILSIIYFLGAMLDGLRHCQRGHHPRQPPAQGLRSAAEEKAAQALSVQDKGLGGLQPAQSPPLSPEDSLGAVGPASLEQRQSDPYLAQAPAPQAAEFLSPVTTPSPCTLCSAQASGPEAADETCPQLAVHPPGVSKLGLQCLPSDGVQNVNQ
Procedure: In order to determine whether the LV isomers were substrates for either folate receptor α (FRα), RFC and/or PCFT, we used model systems with established overexpression of these receptors or transporters ([Westerhof et al., 1995a]; [Westerhof et al., 1995b]; [Lasry et al., 2008]; [Van der Heijden et al., 2009]).
CEM-7A cells (2 × 10^6) were suspended in 1 mL HBSS and the assay was initiated by addition of 25 μL 200 μM [^3H]-l-LV; 5,000 pmol (i.e., 5 μM final concentration). Incubations proceeded for 2 min at 37°C in the absence and presence of increasing amounts of unlabelled LV/antifolate drug. Blanks consisted of a separate incubation at 4°C or incubation with 100-fold molar excess of unlabelled l-LV. [^3H]-l-LV influx was terminated by adding 9 mL ice-cold HBSS, centrifugation and an additional wash of the cells with 10 mL ice-cold buffer. Cell pellets were then assessed for radioactivity. Relative affinities for RFC are expressed as the concentration of unlabelled drug necessary to inhibit [^3H]-l-LV uptake by 50%.

CHO/C5 cells = assay: Growth inhibition, SRB assay, CHO/C5 (RFC-deficient); format: cell-based, Chinese hamster
Procedure: (§1) Briefly, cells were seeded in triplicate in 96-well plates at their pre-established optimal density (CHO cells: 2,500 cells/100 μL; WiDr and HT29: 3,500 cells/100 μL; WiDr-LF/LV, LS174T: 5,000 cells/100 μL; CaCo2, CaCo2-LF/LV, H292, H28 and MSTO-211H: 6,000 cells/100 μL; H460, SW948 and SW1398: 7,000 cells/100 μL) and were allowed to attach for ∼ 24 h at 37°C in 5% CO2 and 100% humidified incubator. Thereafter, 100 μL of drug dilution without LV, or with 5 μM l-LV/5 μM d-LV/10 μM dL-LV (or any LV alone) were added. Cells were allowed to grow for 72 h at 37°C in 5% CO2 and 100% humidity. The t = 0 h control plate consisted of cells plated on the same day as the other cells, but after 24 h at 37°C in 5% CO2 and 100% humidity, only 100 μL medium was added and the cells were fixed immediately with 50% trichloroacetic acid (TCA) in milliQ water (25 μL per well) and put at 4°C for at least 1 h. Plates were washed five times with water and dried. Cells were stained with the SRB protein dye (0.4% (w/v) in 1% acetic acid. Excess dye was washed away four times with 1% acetic acid and plates were dried again. 200 μL of Tris (10 mM Tris (hydroxymethyl)-aminomethane in MQ) was added and optical density (OD) was read at 492 nm after mixing 2–3 min on a plate shaker.

CHO/C5-MOCK cells = assay: Growth inhibition, SRB assay, CHO/C5-MOCK (empty vector); format: cell-based, Chinese hamster
Procedure: as §1

CHO/C5-PCFT cells = assay: Growth inhibition, SRB assay, CHO/C5-PCFT (PCFT-transfected); format: cell-based, Chinese hamster
Procedure: as §1

CHO/C5-hRFC cells = assay: Growth inhibition, SRB assay, CHO/C5-hRFC (human RFC transfected); format: cell-based, Chinese hamster; details: for IC50: CHO/C5-hRFC; for Protection by l-LV, increase of the IC50 value: hRFC-transfected cells, 5 µM l-LV
Procedure: as §1

AA8 cells = assay: Growth inhibition, SRB assay, AA8 (parental CHO); format: cell-based, Chinese hamster; details: for IC50: AA8 parental CHO
Procedure: as §1

H28 cells = assay: Growth inhibition, SRB assay, H28 (MPM); format: cell-based, human; details: H28, SRB, read-out: IC50, 72 h drug exposure
Procedure: as §1

MSTO-211H cells = assay: Growth inhibition, SRB assay, MSTO-211H (MPM); format: cell-based, human; details: SRB, read-out: IC50, 72 h drug exposure
Procedure: as §1

H460 cells = assay: Growth inhibition, SRB assay, H460 (NSCLC); format: cell-based, human; details: H460, SRB, read-out: IC50, 72 h drug exposure
Procedure: as §1

H292 cells = assay: Growth inhibition, SRB assay, H292 (NSCLC); format: cell-based, human; details: H292, SRB, read-out: IC50, 72 h drug exposure
Procedure: as §1

[2] = Cricetulus griseus, antifolate alone

Row | SMILES | IC50 (CHO/C5 cells; [2]) [µM] | IC50 (CHO/C5 cells; antifolate + 5 µM l-LV) [µM] | IC50 (CHO/C5-MOCK cells; [2]) [µM] | IC50 (CHO/C5-MOCK cells; antifolate + 5 µM l-LV) [µM] | IC50 (CHO/C5-PCFT cells; [2]) [µM] | IC50 (CHO/C5-PCFT cells; antifolate + 5 µM l-LV) [µM] | IC50 (CHO/C5-hRFC cells; antifolate + 5 µM l-LV) [nM] | IC50 (CHO/C5-hRFC cells; [2]) [nM] | Protection by l-LV, increase of the IC50 value (CHO/C5-hRFC cells) [fold] | IC50 (AA8 cells; antifolate + 5 µM l-LV) [nM] | IC50 (AA8 cells; [2]) [nM] | other results
1 | CN(Cc1cnc2nc(N)nc(N)c2n1)c1ccc(C(=O)N[C@@H](CCC(=O)O)C(=O)O)cc1 [MTX, methotrexate] | 8.93 | > 100 | 6.67 | > 100 | 3.39 | 41 | 1450 | 20 | 72 | 6600 | 38 | 50% inhibition of [3H]-l-LV influx (RFC), fold higher concentration than l-LV [1]: 3 fold; Fold less active than PLX (AA8 cells; AA8 cells): 10 fold
2 | Cc1nc2ccc(CN(C)c3ccc(C(=O)N[C@@H](CCC(=O)O)C(=O)O)s3)cc2c(=O)[nH]1 [RTX, raltitrexed] | 2.73 | 6.68 | 2.4 | > 100 | 4.33 | 52.6 | 11700 | 8 | 1462 | 2920 | 19 | IC50 (H28 cells; antifolate + 5 µM l-LV): 4260 nM; IC50 (H28 cells; Homo sapiens, NCI-H28, 72 h, antifolate alone): 136 ± 16 nM; IC50 (MSTO-211H cells; Homo sapiens, 72 h, antifolate alone): 8 ± 0.5 nM; IC50 (MSTO-211H cells; antifolate + 5 µM l-LV): 4580 nM; IC50 (H460 cells; antifolate + 5 µM l-LV): 19.8 µM; IC50 (H460 cells; Homo sapiens, NCI-H460, 72 h, antifolate alone): 0.022 ± 0.0009 µM; IC50 (H292 cells; antifolate + 5 µM l-LV): 6.33 µM; IC50 (H292 cells; Homo sapiens, NCI-H292, 72 h, antifolate alone): 0.014 ± 0.0008 µM

Source: PMC11371747, “The role of l-leucovorin uptake and metabolism in the modulation of 5-fluorouracil efficacy and antifolate toxicity” (Frontiers in Pharmacology, 2024)
